Source: the supplement of paper PMC10883282
Where a name gives a salt, the structure may show the parent alone. ± gives the standard deviation of the averaged measurements.

Test system: SW982
Experiment: relative viability vs DMSO control (72 h) (fraction); higher = more viable cells
Outline: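 Plates held 72 h at 37 °C and 5% CO2 contained sarcoma cell lines seeded in 384-well format to reach 80–90% confluence, plus 2.5 µl of serially diluted compound added after 24 h. Source plate concentrations ran from 10 mM to 0.0002 mM, with 0.1% DMSO as vehicle and a 5 µM positive control. Percent growth from ATPLite readings, averaged over up to triplicate wells, gave relative viability. Values were rescaled with 1 as full and 0 as none.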

| SMILES | relative viability (0.00017 µM) | relative viability (0.00051 µM) | relative viability (0.00152 µM) | relative viability (0.00457 µM) | relative viability (0.01372 µM) | relative viability (0.04115 µM) | relative viability (0.1235 µM) | relative viability (0.3704 µM) | relative viability (1.111 µM) | relative viability (3.333 µM) | relative viability (10 µM) | relative viability (2 pM) | relative viability (5 pM) | relative viability (15 pM) | relative viability (50 pM) | relative viability (0.00014 µM) | relative viability (0.00041 µM) | relative viability (0.0012 µM) | relative viability (0.0037 µM) | relative viability (0.011 µM) | relative viability (200 fM) | relative viability (600 fM) |
| --- | --- | --- | --- | --- | --- | --- | --- | --- | --- | --- | --- | --- | --- | --- | --- | --- | --- | --- | --- | --- | --- | --- |
| COc1cccc2c1C(=O)c1c(O)c3c(c(O)c1C2=O)C[C@@](O)(C(=O)CO)C[C@@H]3O[C@H]1C[C@H](N)[C@H](O)[C@H](C)O1 [Doxorubicin Hydrochloride] | 1.05 ± 0.0095 | 1.05 ± 0.057 | 1.07 ± 0.025 | 1.04 ± 0.035 | 0.796 ± 0.022 | 0.457 ± 0.025 | 0.326 ± 0.019 | 0.1607 ± 0.0012 | 0.127 ± 0.0062 | 0.165 ± 0.005 | 0.139 ± 0.0092 | – | – | – | – | – | – | – | – | – | – | – |
| CO[C@H]1C[C@@H]2CC[C@@H](C)[C@@](O)(O2)C(=O)C(=O)N2CCCC[C@H]2C(=O)O[C@H]([C@H](C)C[C@@H]2CC[C@@H](OP(C)(C)=O)[C@H](OC)C2)CC(=O)[C@H](C)/C=C(\C)[C@@H](O)[C@@H](OC)C(=O)[C@H](C)C[C@H](C)/C=C/C=C/C=C/1C [Ridaforolimus] | 1.05 ± 0.027 | 0.956 ± 0.041 | 0.867 ± 0.06 | 0.825 ± 0.066 | 0.755 ± 0.074 | 0.711 ± 0.036 | 0.679 ± 0.015 | 0.652 ± 0.028 | 0.652 ± 0.019 | 0.619 ± 0.0085 | 0.634 ± 0.03 | – | – | – | – | – | – | – | – | – | – | – |
| Cc1cc(C)c(/C=C2\C(=O)Nc3ccccc32)[nH]1 [Semaxanib] | 1.02 ± 0.03 | 1.02 ± 0.031 | 0.997 ± 0.022 | 0.9929 ± 0.0051 | 0.968 ± 0.011 | 0.96 ± 0.029 | 0.947 ± 0.03 | 0.933 ± 0.011 | 0.904 ± 0.02 | 0.879 ± 0.028 | 0.821 ± 0.041 | – | – | – | – | – | – | – | – | – | – | – |
| CN1CCC(COc2cnc(-c3cccc(Cn4nc(-c5cccc(C#N)c5)ccc4=O)c3)nc2)CC1 [Tepotinib] | 1.02 ± 0.025 | 1.07 ± 0.027 | 1.051 ± 0.0014 | 1.07 ± 0.029 | 1.04 ± 0.019 | 1.06 ± 0.019 | 1.062 ± 0.0073 | 1.03 ± 0.035 | 1.04 ± 0.059 | 1.02 ± 0.027 | 0.777 ± 0.025 | – | – | – | – | – | – | – | – | – | – | – |
| COc1cc2c(Oc3ccc4[nH]c(C)cc4c3F)ncnc2cc1OCCCN1CCCC1 [Cediranib] | 1.04 ± 0.034 | 1.058 ± 0.007 | 1.06 ± 0.044 | 1.06 ± 0.027 | 1.06 ± 0.031 | 1.04 ± 0.013 | 1.06 ± 0.029 | 0.967 ± 0.07 | 0.914 ± 0.077 | 0.959 ± 0.012 | 0.961 ± 0.01 | – | – | – | – | – | – | – | – | – | – | – |
| C[C@@H](c1ccc2nccn2c1)n1nnc2ncc(-c3cnn(C)c3)nc21 [Volitinib] | 1.05 ± 0.02 | 1.07 ± 0.012 | 1.05 ± 0.012 | 1.05 ± 0.056 | 1.07 ± 0.03 | 1.06 ± 0.022 | 1.03 ± 0.021 | 1.07 ± 0.016 | 1.04 ± 0.034 | 1.07 ± 0.011 | 1.06 ± 0.025 | – | – | – | – | – | – | – | – | – | – | – |
| CC1(C)CNc2cc(NC(=O)c3cccnc3NCc3ccncc3)ccc21 [Motesanib] | 0.9792 ± 0.0014 | 0.972 ± 0.029 | 0.964 ± 0.039 | 0.964 ± 0.032 | 0.954 ± 0.013 | 0.933 ± 0.046 | 0.978 ± 0.042 | 0.965 ± 0.013 | 0.969 ± 0.033 | 0.9654 ± 0.0093 | 0.908 ± 0.086 | – | – | – | – | – | – | – | – | – | – | – |
| N#CC[C@H](C1CCCC1)n1cc(-c2ncnc3[nH]ccc23)cn1 [Ruxolitinib] | 0.96 ± 0.072 | 0.971 ± 0.05 | 0.964 ± 0.049 | 0.949 ± 0.054 | 0.939 ± 0.058 | 0.919 ± 0.061 | 0.915 ± 0.019 | 0.879 ± 0.02 | 0.842 ± 0.015 | 0.7741 ± 0.005 | 0.614 ± 0.022 | – | – | – | – | – | – | – | – | – | – | – |
| Cc1nc(NC(=O)N2CCC[C@H]2C(N)=O)sc1-c1ccnc(C(C)(C)C(F)(F)F)c1 [Alpelisib] | 0.989 ± 0.04 | 0.929 ± 0.033 | 0.98 ± 0.021 | 0.95 ± 0.02 | 0.997 ± 0.014 | 0.959 ± 0.055 | 0.964 ± 0.031 | 0.927 ± 0.052 | 0.845 ± 0.026 | 0.725 ± 0.022 | 0.596 ± 0.026 | – | – | – | – | – | – | – | – | – | – | – |
| CN1CCN(c2ccc3nc(-c4c(N)c5c(F)cccc5[nH]c4=O)[nH]c3c2)CC1 [Dovitinib] | 1.02 ± 0.018 | 1.03 ± 0.041 | 1.01 ± 0.015 | 0.98 ± 0.027 | 1.01 ± 0.059 | 1.01 ± 0.059 | 0.94 ± 0.036 | 0.793 ± 0.012 | 0.483 ± 0.015 | 0.237 ± 0.022 | 0.0627 ± 0.033 | – | – | – | – | – | – | – | – | – | – | – |
| COc1cc2c(cc1O)CCN[C@]21CS[C@@H]2c3c(OC(C)=O)c(C)c4c(c3[C@H](COC1=O)N1[C@@H]2[C@H]2c3c(cc(C)c(OC)c3O)C[C@@H]([C@@H]1O)N2C)OCO4 [Trabectedin] | – | – | – | – | – | – | – | – | – | – | – | 0.929 ± 0.036 | 0.86 ± 0.035 | 0.765 ± 0.031 | 0.639 ± 0.034 | 0.385 ± 0.021 | 0.266 ± 0.0099 | 0.194 ± 0.0051 | 0.186 ± 0.0075 | 0.1406 ± 0.00098 | 0.987 ± 0.031 | 0.9423 ± 0.004 |
| C=CC(=O)Nc1cccc(Oc2nc(Nc3ccc(N4CCN(C)CC4)cc3)nc3ccsc23)c1 [Olmutinib] | 1.01 ± 0.024 | 1.01 ± 0.02 | 0.98 ± 0.01 | 1 ± 0.028 | 1.02 ± 0.016 | 1.01 ± 0.025 | 1 ± 0.011 | 0.969 ± 0.077 | 0.822 ± 0.065 | 0.663 ± 0.029 | 0.317 ± 0.033 | – | – | – | – | – | – | – | – | – | – | – |
| CC(C)NC(=O)C1CCC(n2c(NC(=O)c3ccc(F)cc3)nc3ccc(CN4CCC(C(C)(C)O)CC4)cc32)CC1 (centres undefined) [Belizatinib] | 1.09 ± 0.024 | 1.06 ± 0.023 | 1.05 ± 0.037 | 1.06 ± 0.03 | 1.06 ± 0.02 | 1.03 ± 0.054 | 0.974 ± 0.048 | 0.766 ± 0.045 | 0.383 ± 0.035 | 0.173 ± 0.011 | 0.0273 ± 0.0064 | – | – | – | – | – | – | – | – | – | – | – |
| CCN1CCN(Cc2ccc(Nc3ncc(F)c(-c4cc(F)c5nc(C)n(C(C)C)c5c4)n3)nc2)CC1 [Abemaciclib] | 1.05 ± 0.036 | 1.06 ± 0.046 | 1.04 ± 0.043 | 1.06 ± 0.041 | 1.07 ± 0.035 | 0.987 ± 0.031 | 0.787 ± 0.046 | 0.593 ± 0.02 | 0.469 ± 0.013 | 0.302 ± 0.12 | 0.0803 ± 0.12 | – | – | – | – | – | – | – | – | – | – | – |
| COc1c(OCCCN2CCOCC2)ccc2c1N=C(NC(=O)c1cnc(N)nc1)N1CCN=C21 [Copanlisib] | 1.04 ± 0.024 | 1.02 ± 0.022 | 1.04 ± 0.043 | 0.881 ± 0.016 | 0.797 ± 0.032 | 0.704 ± 0.029 | 0.529 ± 0.01 | 0.391 ± 0.019 | 0.213 ± 0.011 | 0.177 ± 0.0066 | 0.177 ± 0.0061 | – | – | – | – | – | – | – | – | – | – | – |
| Cc1nc(-c2cn3c(n2)-c2ccc(-c4cnn(C(C)(C)C(N)=O)c4)cc2OCC3)n(C(C)C)n1 [Taselisib] | 1.03 ± 0.045 | 1.04 ± 0.023 | 1.02 ± 0.043 | 1.02 ± 0.02 | 1.02 ± 0.034 | 0.968 ± 0.02 | 0.898 ± 0.026 | 0.7957 ± 0.0075 | 0.633 ± 0.035 | 0.506 ± 0.016 | 0.339 ± 0.02 | – | – | – | – | – | – | – | – | – | – | – |
| O=C(Cc1ccc(-c2ccc(OCCN3CCOCC3)cc2)cn1)NCc1ccccc1 [KX2-391] | 1.01 ± 0.037 | 1.07 ± 0.021 | 1.06 ± 0.04 | 1.06 ± 0.013 | 1.037 ± 0.0061 | 0.661 ± 0.02 | 0.299 ± 0.019 | 0.269 ± 0.017 | 0.265 ± 0.023 | 0.2804 ± 0.00064 | 0.278 ± 0.0036 | – | – | – | – | – | – | – | – | – | – | – |
| C[C@@H]1COCCN1c1cc(-c2ccnn2C)c2ccnc(-c3ccn[nH]3)c2n1 | 1.04 ± 0.031 | 1.05 ± 0.052 | 1.05 ± 0.056 | 1.04 ± 0.015 | 0.989 ± 0.028 | 0.685 ± 0.039 | 0.499 ± 0.009 | 0.322 ± 0.011 | 0.1893 ± 0.0012 | 0.149 ± 0.002 | 0.142 ± 0.0075 | – | – | – | – | – | – | – | – | – | – | – |
| Cc1cnc(Nc2ccc(OCCN3CCCC3)cc2)nc1Nc1cccc(S(=O)(=O)NC(C)(C)C)c1 [Fedratinib] | 1.03 ± 0.012 | 1.03 ± 0.033 | 1.07 ± 0.021 | 1.07 ± 0.016 | 1.088 ± 0.0018 | 1.06 ± 0.024 | 0.846 ± 0.052 | 0.394 ± 0.013 | 0.161 ± 0.0068 | 0.0074 ± 0.0013 | 0.00487 ± 0.00038 | – | – | – | – | – | – | – | – | – | – | – |
